Experimental data from patent US9815842B2, “Pyrazolo pyrimidine derivatives and their use as MALT1 inhibitors” (Novartis AG, priority 2014, dated 2017).

Columns and labels:
[1] = target: C-domain of MALT1 (amino acids 329-824) (Homo sapiens (Human), UniProt Q9UDY8); test: MALT1 biochemical assay (fluorescence lifetime enzyme activity assay); conditions: 60 min pre-incubation, 2.5 nM enzyme, 1 μM peptide substrate
Description: The readout parameter is the increase of fluorescence lifetime over time, proportional to enzyme activity.
The assay employs a short peptide substrate labeled with the single fluorophore PT14 as a fluorescence lifetime probe sensitive to the cleavage state of the substrate (PT14: 6-(9-oxo-9H-acridin-10-yl)-hexanoate, AssayMetrics, UK). […] The assay buffer consists of 200 mM Tris/HCl at pH 7.5, 0.8 M Na citrate, 100 μM EGTA, 100 μM DTT and 0.05% (w/v) CHAPS. […] Test compounds were dissolved in 100% (v/v) DMSO or a mixture containing 90% (v/v) DMSO and 10% (v/v) H2O at a stock concentration of 100 mM. Serial dilutions of test compounds were prepared using either 100% (v/v) DMSO or a mixture containing 90% (v/v) DMSO and 10% (v/v) H2O.

Human IL2 promoter = Human IL2 promoter reporter gene assay (RGA) in Jurkat cells; assay type: cell-based; conditions: Jurkat clone K22 290_H23, anti-CD28 mAb + PMA stimulation 5.5 h
Description: Human IL2 Promoter Reporter Gene Assay (RGA) in Jurkat Cells
The transfected Jurkat clone K22 290_H23 was propagated in RPMI 1640 supplemented with 10% heat inactivated fetal calf serum, 50 μM 2-mercaptoethanol and 1 mg/ml Geneticin. The cell concentration should not exceed 1×10e6/ml during culturing. The cells should not exceed passage 30. Prior to the assay the cells were washed and prepared to the concentration of 2×10e6 cells/ml.
Compound dilutions were made as 2×-concentrated solutions then diluted 1/2 by addition to cells. Two hundred and fifty μl of compound dilution and 250 μl of cells were mixed together in wells of a 96-deep well plate. Cells/compounds premix were incubated 30 min at 37° C. and 5% CO2 directly in the deep well plate.
After pre-incubation of cells with compounds, cells were stimulated with anti-CD28 mAb (clone 15E8) at 3 μg/ml+PMA at 1 μg/ml. Both co-stimulants were diluted in culture medium at a 10×-concentrated solution. 10 μl of co-stimulants were pipetted into the white 96-well plates and 100 μl of cell/compound mix was immediately added in duplicates. The cells were stimulated for 5.5 h at 37° C. and 5% CO2.
After cell stimulation, 50 μl of BriteLitePlus reagent (Perkin Elmer) was added to each well and the bioluminescence was measured with a Wallac EnVision reader (Perkin Elmer).

Sequence of C-domain of MALT1 (amino acids 329-824) (Q9UDY8 329-824): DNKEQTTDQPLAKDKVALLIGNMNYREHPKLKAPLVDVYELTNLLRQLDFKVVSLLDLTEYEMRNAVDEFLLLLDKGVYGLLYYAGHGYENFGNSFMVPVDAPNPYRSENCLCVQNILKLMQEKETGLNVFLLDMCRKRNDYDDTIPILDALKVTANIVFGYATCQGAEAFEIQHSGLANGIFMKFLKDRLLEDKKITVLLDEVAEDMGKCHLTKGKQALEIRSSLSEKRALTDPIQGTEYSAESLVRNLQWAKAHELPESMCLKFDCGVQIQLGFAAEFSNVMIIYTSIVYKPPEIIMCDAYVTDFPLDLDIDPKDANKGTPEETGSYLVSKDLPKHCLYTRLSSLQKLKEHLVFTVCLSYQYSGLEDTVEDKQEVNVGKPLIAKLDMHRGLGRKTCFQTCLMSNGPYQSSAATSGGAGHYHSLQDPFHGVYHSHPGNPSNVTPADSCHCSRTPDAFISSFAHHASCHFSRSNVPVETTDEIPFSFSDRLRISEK

IC50 [1] [nM] | IC50 (Human IL2 promoter) [nM] | Structure (SMILES)
9 | 46 | CO[C@@H](C)c1c(NC(=O)Nc2ccnc(C(F)F)c2)cnc2cc(Cl)nn12 [Example 92, (S)-1-(2-chloro-7-(1-methoxyethyl)pyrazolo[1,5-a]pyrimidin-6-yl)-3-(2-(difluoromethyl)pyridin-4-yl)urea]
 | 199 | O=C(Nc1cnc(-n2nccn2)c(Cl)c1)Nc1cnc2cc(Cl)nn2c1C1COCCN1 (stereo not drawn) [Example 123, 1-(5-chloro-6-(2H-1,2,3-triazol-2-yl)pyridin-3-yl)-3-(2-chloro-7-(morpholin-3-yl)pyrazolo[1,5-a]pyrimidin-6-yl)urea]
11 | 59 | CO[C@@H](C)c1c(NC(=O)Nc2ccnc(C#N)c2)cnc2cc(Cl)nn12 [Example 105, (S)-1-(2-chloro-7-(1-methoxyethyl)pyrazolo[1,5-a]pyrimidin-6-yl)-3-(2-cyanopyridin-4-yl)urea]
13 | 60 | CN(C)C1(c2c(NC(=O)Nc3cnc(-n4nccn4)c(C(F)(F)F)c3)cnc3cc(Cl)nn23)CC1 [Example 107, 1-(6-(2H-1,2,3-triazol-2-yl)-5-(trifluoromethyl)pyridin-3-yl)-3-(2-chloro-7-(1-(dimethylamino)cyclopropyl)pyrazolo[1,5-a]pyrimidin-6-yl)urea]
9 | 115 | COC[C@@H](C)c1c(NC(=O)Nc2cnc(-n3nccn3)c(C(F)(F)F)c2)cnc2cc(Cl)nn12 [Example 110, (S)-1-(6-(2H-1,2,3-triazol-2-yl)-5-(trilfuoromethyl)pyridin-3-yl)-3-(2-chloro-7-(1-methoxypropan-2-yl)pyrazolo[1,5-a]pyrimidin-6-yl)urea]
10 | 49 | CO[C@@H](C)c1c(NC(=O)Nc2cnc(-n3nccn3)c(Cl)c2)cnc2cc(C#N)nn12 [Example 96, (S)-1-(5-chloro-6-(2H-1,2,3-tirazol-2-yl)pyridin-3-yl)-3-(2-cyano-7-(1-methoxyethyl)pyrazolo[1,5-a]pyrimidin-6-yl)urea]
8 | 484 | COCC1(c2c(NC(=O)Nc3cncc(C(F)(F)F)c3)cnc3cc(Cl)nn23)CCCO1 (stereo not drawn) [Example 106, 1-(2-chloro-7-(2-(methoxymethyl)tetrahydrofuran-2-yl)pyrazolo[1,5-a]pyrimidin-6-yl)-3-(5-(trifluoromethyl)pyridin-3-yl)urea]
 | 19 | CO[C@@H](C)c1c(NC(=O)Nc2cnc(-n3nccn3)c(Cl)c2)cnc2cc(Cl)nn12 [Example 10, (S)-1-(5-chloro-6-(2H-1,2,3-triazol-2-yl)pyridin-3-yl)-3-(2-chloro-7-(1-methoxyethyl)pyrazolo[1,5-a]pyrimidin-6-yl)urea]
9 | 78 | COC[C@@H](OC)c1c(NC(=O)Nc2cnc(-n3nccn3)c(Cl)c2)cnc2cc(Cl)nn12 [Example 127, (S)-1-(5-chloro-6-(2H-1,2,3-triazol-2-yl)pyridin-3-yl)-3-(2-chloro-7-(1,2-dimethoxyethyl)pyrazolo[1,5-a]pyrimidin-6-yl)urea]
8 | 41 | CN[C@H](c1c(NC(=O)Nc2cnc(-n3nccn3)c(Cl)c2)cnc2cc(Cl)nn12)C(C)C [Example 124, (S)-1-(5-chloro-6-(2H-1,2,3-triazol-2-yl)pyridin-3-yl)-3-(2-chloro-7-(2-methyl-1-(methylamino)propyl)pyrazolo[1,5-a]pyrimidin-6-yl)urea]
19 | 84 | C[C@H](O[C@@H]1CCOC1)c1c(NC(=O)Nc2cnc(-n3nccn3)c(Cl)c2)cnc2cc(Cl)nn12 [Example 100, 1-(5-chloro-6-(2H-1,2,3-triazol-2-yl)pyridin-3-yl)-3-(2-chloro-7-((S)-1-(((R)-tetrahydrofuran-3-yl)oxy)ethyl)pyrazolo[1,5-a]pyrimidin-6-yl)urea]
5 | 25 | C[C@H](O[C@H]1CCOC1)c1c(NC(=O)Nc2cnc(-n3nccn3)c(Cl)c2)cnc2cc(Cl)nn12 [Example 101, 1-(5-chloro-6-(2H-1,2,3-triazol-2-yl)pyridin-3-yl)-3-(2-chloro-7-((S)-1-(((S)-tetrahydrofuran-3-yl)oxy)ethyl)pyrazolo[1,5-a]pyrimidin-6-yl)urea]
 | 82 | CO[C@H](C)c1c(NC(=O)Nc2cnc(-n3nccn3)c(Cl)c2)cnc2cc(Cl)nn12 [Example 46, (R)-1-(5-chloro-6-(2H-1,2,3-triazol-2-yl)pyridin-3-yl)-3-(2-chloro-7-(1-methoxyethyl)pyrazolo[1,5-a]pyrimidin-6-yl)urea]
8 | 52 | COCC(OC)c1c(NC(=O)Nc2cnc(-n3nccn3)c(C(F)(F)F)c2)cnc2cc(Cl)nn12 (stereo not drawn) [Example 108, 1-(6-(2H-1,2,3-triazol-2-yl)-5-(trifluoromethyl)pyridin-3-yl)-3-(2-chloro-7-(1,2-dimethoxyethyl)pyrazolo[1,5-a]pyrimidin-6-yl)urea]
3 | 14 | C[C@H](OC[C@H]1CCOC1)c1c(NC(=O)Nc2cnc(-n3nccn3)c(Cl)c2)cnc2cc(Cl)nn12 [Example 102, 1-(5-chloro-6-(2H-1,2,3-triazol-2-yl)pyridin-3-yl)-3-(2-chloro-7-((S)-1-(((S)-tetrahydrofuran-3-yl)methoxy)ethyl)pyrazolo[1,5-a]pyrimidin-6-yl)urea]
2 | 24 | Cc1cc2ncc(NC(=O)Nc3cnc(-n4nccn4)c(Cl)c3)c(C3(C)CCCO3)n2n1 (stereo not drawn) [Example 104, 1-(5-chloro-6-(2H-1,2,3-triazol-2-yl)pyridin-3-yl)-3-(2-methyl-7-(2-methyltetrahydrofuran-2-yl)pyrazolo[1,5-a]pyrimidin-6-yl)urea]
370 |  | CC(C)c1c(NC(=O)Nc2cnc(-c3ccnn3C)c(Cl)c2)cnc2cc(Cl)nn12 [Example 29, 1-(5-chloro-6-(1-methyl-1H-pyrazol-5-yl)pyridin-3-yl)-3-(2-chloro-7-isopropylpyrazolo[1,5-a]pyrimidin-6-yl)urea]
1 | 157 | CO[C@@H](C)c1c(NC(=O)Nc2cnc(OC(F)F)c(Cl)c2)cnc2cc(Cl)nn12 [Example 93, (S)-1-(5-chloro-6-(difluoromethoxy)pyridin-3-yl)-3-(2-chloro-7-(1-methoxyethyl)pyrazolo[1,5-a]pyrimidin-6-yl)urea]
2 | 13 | CO[C@@H](C)c1c(NC(=O)Nc2cnc(-n3nccn3)c(Cl)c2)cnc2cc(F)nn12 [Example 95, (S)-1-(5-chloro-6-(2H-1,2,3-triazol-2-yl)pyridin-3-yl)-3-(2-fluoro-7-(1-methoxyethyl)pyrazolo[1,5-a]pyrimidin-6-yl)urea]
 | 44 | CO[C@H](c1c(NC(=O)Nc2cnc(-n3nccn3)c(Cl)c2)cnc2cc(Cl)nn12)[C@@H](C)OC [Example 98, 1-(5-chloro-6-(2H-1,2,3-triazol-2-yl)pyridin-3-yl)-3-(2-chloro-7-((1R,2R)-1,2-dimethoxypropyl)pyrazolo[1,5-a]pyrimidin-6-yl)urea]
21 | 41 | CO[C@@H](C)c1c(NC(=O)Nc2cc(Cl)cnc2OCCN(C)C)cnc2cc(Cl)nn12 [Example 99, (S)-1-(5-chloro-2-(2-(dimethylamino)ethoxy)pyridin-3-yl)-3-(2-chloro-7-(1-methoxyethyl)pyrazolo[1,5-a]pyrimidin-6-yl)urea]
53 | 218 | COCC(OC)c1c(NC(=O)Nc2ccnc(C(F)(F)F)c2)cnc2cc(Cl)nn12 (stereo not drawn) [Example 109, 1-(2-chloro-7-(1,2-dimethoxyethyl)pyrazolo[1,5-a]pyrimidin-6-yl)-3-(2-(trifluoromethyl)pyridin-4-yl)urea]

Structure (SMILES) | IC50 [1] [nM] | IC50 (Human IL2 promoter) [nM]
CO[C@@H](C)c1c(NC(=O)Nc2cncc(C#N)c2)cnc2cc(Cl)nn12 [Example 8, (S)-1-(2-chloro-7-(1-methoxyethyl)pyrazolo[1,5-a]pyrimidin-6-yl)-3-(5-cyanopyridin-3-yl)urea] |  | 33
CC(C)c1c(NC(=O)Nc2cnc(-n3nccn3)c(Cl)c2)cnc2cc(Cl)nn12 [Example 21, 1-(5-chloro-6-(2H-1,2,3-triazol-2-yl)pyridin-3-yl)-3-(2-chloro-7-isopropylpyrazolo[1,5-a]pyrimidin-6-yl)urea] |  | 104
O=C(Nc1cnc(-n2nccn2)c(Cl)c1)Nc1cnc2cc(Cl)nn2c1C1CCOCC1 [Example 58, 1-(5-chloro-6-(2H-1,2,3-triazol-2-yl)pyridin-3-yl)-3-(2-chloro-7-(tetrahydro-2H-pyran-4-yl)pyrazolo[1,5-a]pyrimidin-6-yl)urea] |  | 267
